# Source: patent US6358885B1, “Substituted phenylheterocyclic herbicides” (Mississippi State University, priority 1992, dated 2002)
# How the values were obtained:
# [1] = tested on: smooth crabgrass; test: Test G preemergence/postemergence greenhouse plant response rating 0 to 100; assay type: in vivo, Digitaria ischaemum; conditions: 0 to 100 scale
# Outline: (§1)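 Scoring: visual injury at 13 to 21 days post-application, compared with untreated controls. Planting: one species per pot in greenhouse medium. Dosing: compound in non-phytotoxic solvent, within one day of sowing for preemergence or at 2–4 leaves for postemergence.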
# [2] = tested on: pitted morningglory; test: as above; assay type: in vivo, Ipomoea lacunosa; conditions: 0 to 100 scale
# Outline: as §1
# [3] = tested on: common purslane; test: as above; assay type: in vivo, Portulaca oleracea; conditions: 0 to 100 scale
# Outline: as §1
# [4] = tested on: itchgrass; test: as above; assay type: in vivo, Rottboellia exaltata; conditions: 0 to 100 scale
# Outline: as §1
# [5] = tested on: johnsongrass; test: as above; assay type: in vivo, Sorghum halepense; conditions: 0 to 100 scale
# Outline: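 Greenhouse pots, one species each; non-phytotoxic solvent vehicle. Read-out: visual injury vs untreated, 13–21 DAT. Dash denotes no result.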
# [6] = tested on: peanut; test: as above; assay type: in vivo, Arachis hypoagaea; conditions: 0 to 100 scale
# Outline: as §1
# [7] = tested on: large crabgrass; test: as above; assay type: in vivo, Digitaria sanguinalis; conditions: 0 to 100 scale
# Outline: as §1
# [8] = tested on: common ragweed; test: as above; assay type: in vivo, Ambrosia elatior; conditions: 0 to 100 scale
# Outline: as §1
# [9] = tested on: broadleaf signalgrass; test: as above; assay type: in vivo, Brachiaria plantaginea; conditions: 0 to 100 scale
# Outline: as §1
# [10] = tested on: purple nutsedge; test: as above; assay type: in vivo, Cyperus rotundus; conditions: Rate 125 g/ha, 0 to 100 scale
# Outline: as §1
# [11] = tested on: dallisgrass; test: as above; assay type: in vivo, Paspalum dilatatum; conditions: 0 to 100 scale
# Outline: as §1
# [12] = tested on: yellow nutsedge; test: as above; assay type: in vivo, Cyperus esculentus; conditions: Rate 125 g/ha, 0 to 100 scale
# Outline: as §1
# [13] = tested on: annual bluegrass; test: as above; assay type: in vivo, Poa annua; conditions: 0 to 100 scale
# Outline: as §1
# [14] = tested on: guineagrass; test: as above; assay type: in vivo, Panicum maximum; conditions: 0 to 100 scale
# Outline: as §1
# [15] = tested on: goosegrass; test: as above; assay type: in vivo, Eleusine indica; conditions: 0 to 100 scale
# Outline: as §1
# [16] = tested on: bermudagrass; test: as above; assay type: in vivo, Cynodon dactylon; conditions: 0 to 100 scale
# Outline: as §1
# [17] = tested on: alfalfa; test: as above; assay type: in vivo, Medicago ativa; conditions: 0 to 100 scale
# Outline: as §1
# [18] = tested on: speedwell; test: Test C preemergence/postemergence greenhouse plant response rating 0 to 100; assay type: in vivo, Veronica persica; conditions: for Plant response rating Speedwell: 0 to 100 scale
# Source text: The compounds evaluated in this test were formulated in a non-phytoxic solvent and applied to the soil surface before plant seedlings emerged (preemergence application), to water that covered the soil surface (flood application), and to plants that were in the one-to-four leaf stage (postemergence application). A sandy loam soil was used for the preemergence and postemergence tests, while a silt loam soil was used in the flood test. Water depth was approximately 2.5 cm for the flood test and was maintained at this level for the duration of the test. Plant species in the preemergence and postemergence tests consisted of barley (Hordeum vulgare), bedstraw (Galium aparine), blackgrass (Alopecurus myosuroides), chickweed (Stellaria media), corn (Zea mays), cotton (Gossypium hirsutum), crabgrass (Digitaria sanguinalis), downy brome (Bromus tectorum), giant foxtail (Setaria faberii), lambsquarters (Chenopodium album), morningglory (Ipomoea hederacea), pigweed ([…]), rape (Brassica napus), ryegrass (Lolium multiflorum), sorghum (Sorghum bicolor), soybean (Glycine max), speedwell (Veronica persica), sugar beet (Beta vulgaris), velvetleaf (Abutilon theophrasti), wheat (Triticum aestivum), wild buckwheat (Polygonum convolvulus), and wild oat (Avena fatua). All plant species were planted one day before application of the compound for the preemergence portion-of this test. Plantings of these species were adjusted to produce plants of appropriate size for the post-emergence portion of the test. […] All plant species were grown using normal greenhouse practices. Visual evaluations of injury expressed on treated plants, when compared to untreated controls, were recorded approximately fourteen to twenty one days after application of the test compound. […] A dash (-) response means no test result.
smiles,measurement,setting,value
C#CCOc1cc(-c2nn3c(c2Br)CCCC3)c(F)cc1Cl [Compound 26],"Plant response rating, Smooth Crabgras","[1]; POSTEMERGENCE, Rate 125 g/ha",0
same,"Plant response rating, Smooth Crabgras","[1]; POSTEMERGENCE, Rate 250 g/ha",0
same,"Plant response rating, Smooth Crabgras","[1]; PREEMERGENCE, Rate 125 g/ha",0
same,"Plant response rating, Smooth Crabgras","[1]; PREEMERGENCE, Rate 250 g/ha",40
same,"Plant response rating, Pit Morninglory","[2]; POSTEMERGENCE, Rate 125 g/ha",0
same,"Plant response rating, Pit Morninglory","[2]; POSTEMERGENCE, Rate 250 g/ha",40
same,"Plant response rating, Pit Morninglory","[2]; PREEMERGENCE, Rate 125 g/ha",0
same,"Plant response rating, Pit Morninglory","[2]; PREEMERGENCE, Rate 250 g/ha",20
same,"Plant response rating, Cmn Purslane","[3]; POSTEMERGENCE, Rate 125 g/ha",100
same,"Plant response rating, Cmn Purslane","[3]; POSTEMERGENCE, Rate 250 g/ha",90
same,"Plant response rating, Cmn Purslane","[3]; PREEMERGENCE, Rate 125 g/ha",30
same,"Plant response rating, Cmn Purslane","[3]; PREEMERGENCE, Rate 250 g/ha",100
same,"Plant response rating, Itchgrass","[4]; POSTEMERGENCE, Rate 125 g/ha",0
same,"Plant response rating, Itchgrass","[4]; POSTEMERGENCE, Rate 250 g/ha",0
same,"Plant response rating, Itchgrass","[4]; PREEMERGENCE, Rate 125 g/ha",0
same,"Plant response rating, Itchgrass","[4]; PREEMERGENCE, Rate 250 g/ha",50
same,"Plant response rating, Johnsongrass","[5]; POSTEMERGENCE, Rate 125 g/ha",0
same,"Plant response rating, Johnsongrass","[5]; POSTEMERGENCE, Rate 250 g/ha",0
same,"Plant response rating, Johnsongrass","[5]; PREEMERGENCE, Rate 125 g/ha",0
same,"Plant response rating, Johnsongrass","[5]; PREEMERGENCE, Rate 250 g/ha",0
same,"Plant response rating, Peanuts","[6]; POSTEMERGENCE, Rate 125 g/ha",0
same,"Plant response rating, Peanuts","[6]; POSTEMERGENCE, Rate 250 g/ha",0
same,"Plant response rating, Peanuts","[6]; PREEMERGENCE, Rate 250 g/ha",0
same,"Plant response rating, Large Crabgrass","[7]; POSTEMERGENCE, Rate 125 g/ha",0
same,"Plant response rating, Large Crabgrass","[7]; POSTEMERGENCE, Rate 250 g/ha",0
same,"Plant response rating, Large Crabgrass","[7]; PREEMERGENCE, Rate 125 g/ha",90
same,"Plant response rating, Large Crabgrass","[7]; PREEMERGENCE, Rate 250 g/ha",90
same,"Plant response rating, Cmn Ragweed","[8]; POSTEMERGENCE, Rate 125 g/ha",80
same,"Plant response rating, Cmn Ragweed","[8]; POSTEMERGENCE, Rate 250 g/ha",100
same,"Plant response rating, Cmn Ragweed","[8]; PREEMERGENCE, Rate 125 g/ha",0
same,"Plant response rating, Cmn Ragweed","[8]; PREEMERGENCE, Rate 250 g/ha",20
same,"Plant response rating, Brdlf Sgnlgrass","[9]; POSTEMERGENCE, Rate 125 g/ha",0
same,"Plant response rating, Brdlf Sgnlgrass","[9]; POSTEMERGENCE, Rate 250 g/ha",0
same,"Plant response rating, Brdlf Sgnlgrass","[9]; PREEMERGENCE, Rate 125 g/ha",0
same,"Plant response rating, Brdlf Sgnlgrass","[9]; PREEMERGENCE, Rate 250 g/ha",0
same,"Plant response rating, Purple Nutsedge",[10]; POSTEMERGENCE,0
same,"Plant response rating, Purple Nutsedge",[10]; PREEMERGENCE,0
same,"Plant response rating, Dallisgrass","[11]; POSTEMERGENCE, Rate 125 g/ha",0
same,"Plant response rating, Dallisgrass","[11]; POSTEMERGENCE, Rate 250 g/ha",0
same,"Plant response rating, Dallisgrass","[11]; PREEMERGENCE, Rate 125 g/ha",20
same,"Plant response rating, Dallisgrass","[11]; PREEMERGENCE, Rate 250 g/ha",20
same,"Plant response rating, Yellow Nutsedge",[12]; POSTEMERGENCE,0
same,"Plant response rating, Yellow Nutsedge",[12]; PREEMERGENCE,0
same,"Plant response rating, Ann Bluegrass","[13]; POSTEMERGENCE, Rate 125 g/ha",0
same,"Plant response rating, Ann Bluegrass","[13]; POSTEMERGENCE, Rate 250 g/ha",0
same,"Plant response rating, Ann Bluegrass","[13]; PREEMERGENCE, Rate 125 g/ha",0
same,"Plant response rating, Ann Bluegrass","[13]; PREEMERGENCE, Rate 250 g/ha",0
same,"Plant response rating, Guineagrass","[14]; POSTEMERGENCE, Rate 125 g/ha",0
same,"Plant response rating, Guineagrass","[14]; POSTEMERGENCE, Rate 250 g/ha",0
same,"Plant response rating, Guineagrass","[14]; PREEMERGENCE, Rate 125 g/ha",0
same,"Plant response rating, Guineagrass","[14]; PREEMERGENCE, Rate 250 g/ha",30
same,"Plant response rating, Goosegrass","[15]; POSTEMERGENCE, Rate 125 g/ha",0
same,"Plant response rating, Goosegrass","[15]; POSTEMERGENCE, Rate 250 g/ha",0
same,"Plant response rating, Goosegrass","[15]; PREEMERGENCE, Rate 125 g/ha",70
same,"Plant response rating, Goosegrass","[15]; PREEMERGENCE, Rate 250 g/ha",20
same,"Plant response rating, Bermudagrass","[16]; POSTEMERGENCE, Rate 125 g/ha",0
same,"Plant response rating, Bermudagrass","[16]; POSTEMERGENCE, Rate 250 g/ha",0
same,"Plant response rating, Bermudagrass","[16]; PREEMERGENCE, Rate 125 g/ha",0
same,"Plant response rating, Bermudagrass","[16]; PREEMERGENCE, Rate 250 g/ha",0
same,"Plant response rating, Alfalfa Var.","[17]; POSTEMERGENCE, Rate 125 g/ha",20
same,"Plant response rating, Alfalfa Var.","[17]; POSTEMERGENCE, Rate 250 g/ha",50
same,"Plant response rating, Alfalfa Var.","[17]; PREEMERGENCE, Rate 125 g/ha",0
same,"Plant response rating, Alfalfa Var.","[17]; PREEMERGENCE, Rate 250 g/ha",60
same,Plant response rating Speedwell,"[18]; POSTEMERGENCE, 62 g/ha",100
same,Plant response rating Speedwell,"[18]; POSTEMERGENCE, 250 g/ha",100
same,"Plant response rating (0 to 100), Speedwell","[18]; POSTEMERGENCE, Rate 4 g/ha",90
same,Plant response rating Speedwell,"[18]; PREEMERGENCE, 250 g/ha",100
same,"Plant response rating (0 to 100), Speedwell","[18]; PREEMERGENCE, Rate 4 g/ha",90
same,"Plant response rating (0 to 100), Speedwell","[18]; Rate 16 g/ha, POSTEMERGENCE",100
same,"Plant response rating (0 to 100), Speedwell","[18]; Rate 16 g/ha, PREEMERGENCE",100
